Laboratory results as given in US12220410B2, “Antitumor composition” (priority 2019, dated 2025).
Like-named read-outs stand apart in the source and are kept apart here.

Experiments:
[1] = tested on: human diffuse large B-cell lymphoma (DLBCL) cell line OCI-Ly7; experiment: In vitro cell growth inhibition test, OCI-Ly7 (cell viability, combination index); assay type: cell-based; settings: compound A 0 nM, OCI-Ly7
[2] = tested on: human diffuse large B-cell lymphoma cell line OCI-Ly7; assay type: in vivo
[3] = tested on: human follicular lymphoma cell line DOHH-2; experiment: In vitro cell growth inhibition test (CellTiter-Fluor), DOHH-2; assay type: cell-based; settings: for IC50: Homo sapiens, DOHH-2, 120 h; for FIC (fractional inhibitory concentration): DOHH-2
[4] = tested on: human diffuse large B-cell lymphoma cell line OCI-Ly7; assay type: in vivo; remark: listed apart in the source
[5] = tested on: human acute myelogenous leukemia (AML) cell line KG-1; assay type: in vivo
[6] = tested on: human acute myelogenous leukemia (AML) cell line KG-1; assay type: in vivo; remark: listed apart in the source
[7] = tested on: human breast cancer cell line MDA-MB-453; experiment: In vivo antitumor effect test, MDA-MB-453 tumor, compound A and lapatinib (Example 37); parameters: species or system NOD-SCID mice
Protocol: The tumor volume was calculated from tumor diameters by the following formula: (Long diameter×[Short diameter]^2×0.5). Using the calculated tumor volume value, the relative tumor volume (ratio of the tumor volume on the day of measurement to the baseline tumor volume on Day 1) was calculated. […] Further, the tumor growth delay rate (% TGD) was calculated according to the following formula: % TGD={(T−C)/C}×100, Where: • T: […] relative tumor volume of the control group to reach 1600% 6) Statistical Analysis
Compound A was suspended in a 1% hypromellose solution to prepare 20 mg/mL test substance suspensions (a suspension for preparing a single administration solution and a suspension for preparing a 100 mg/kg combined administration solution). The 20 mg/mL test substance suspensions were diluted with a 1% hypromellose solution to prepare 10 mg/mL (100 mg/kg administration solution), 6 mg/mL (suspension for preparing a 30 mg/kg combined administration solution), and 3 mg/mL (30 mg/kg administration solution) test substance suspensions. Lapatinib was suspended in a 1% hypromellose solution to prepare a 20 mg/mL suspension for preparing a 100 mg/kg lapatinib combined administration solution. The 20 mg/mL suspension was diluted with a 1% hypromellose solution to prepare a 10 mg/mL suspension for 100 mg/kg single administration. The administration solution of the combination group was prepared by mixing the 6 mg/mL compound A suspension and the 20 mg/mL lapatinib suspension at 1:1, or mixing the 20 mg/mL compound A suspension and the 20 mg/mL lapatinib suspension at 1:1.
MDA-MB-453 was obtained from ATCC. […] The collected cells were suspended in serum-free RPMI 1640 medium at 1.0×10^8 cells/mL.
5-week-old female NOD-SCID mice (NOD.CB17-Prkdcscid/J, produced by Charles River Japan Co., Ltd.) were used. The female NOD-SCID mice were bred in the same manner as in Example 36. The cell suspension was inoculated at 2×10^7 cells/body into the subcutaneous space of the right axillary region of the 6-week-old NOD-SCID mice, and the mice were grouped in the same manner as in Example 36 using the tumor volume as an index.
The administration was started on the next day of the grouping (Day 2), and compound A and lapatinib were orally administered once a day for 28 consecutive days. Each group (N=8) was treated as follows. • (1) Control (solvent control) group: 1% hypromellose solution • (2) Compound A (30 mg/kg) treated group: 30 mg/kg of compound A (oral administration once a day for 28 consecutive days) • (3) Compound A (100 mg/kg) treated group: 100 mg/kg of compound A (oral administration once a day for 28 consecutive days) • (4) Lapatinib (100 mg/kg) treated group: 100 mg/kg of lapatinib (oral administration once a day for 28 consecutive days) • (5) Combination group 1: 30 mg/kg of compound A (oral administration once a day for 28 consecutive days)+100 mg/kg of lapatinib (oral administration once a day for 28 consecutive days) • (6) Combination group 2: 100 mg/kg of compound A (oral administration once a day for 28 consecutive days)+100 mg/kg of lapatinib (oral administration once a day for 28 consecutive days)

[8] = tested on: human diffuse large B-cell lymphoma cell line OCI-Ly7; assay type: in vivo; remark: listed apart in the source
[9] = bendamustine 15 mg/kg intraperitoneally on Days 2, 3, 4, 5, 6, relative tumor volume 1600%
[10] = cyclophosphamide 50 mg/kg intraperitoneally on Days 2, 5, 9, 12, relative tumor volume 1600%
[11] = lapatinib 100 mg/kg orally once a day for 28 days, relative tumor volume 200%
[12] = rituximab 10 mg/kg intraperitoneally on Days 2, 9, 16, relative tumor volume 600%

## Cn1c(CCCC(=O)O)nc2cc(N(CCCl)CCCl)ccc21 [Bendamustine]
[1]; bendamustine 1.25 nM
  Cell viability (ratio relative to the drug-free control): 0.93
[1]; bendamustine 2.5 nM
  Cell viability (ratio relative to the drug-free control): 0.87
[1]; bendamustine 5 nM
  Cell viability (ratio relative to the drug-free control): 0.66
[1]; bendamustine 10 nM
  Cell viability (ratio relative to the drug-free control): 0.29
[2]; 30 mg/kg of compound A, 15 mg/kg of bendamustine
  effectiveness of monotherapy (tumor growth delay): effective
[2]; bendamustine 15 mg/kg intraperitoneally on Days 2, 3, 4, 5, 6
  Median Time (time for relative tumor volume to reach 1600%): 24.3 days
[2]; [9]
  Tumor growth delay: 8.8 days
  Tumor growth delay rate: 56.5%
[3]; read-out: IC50 value of bendamustine in each concentration of compound A, compound A 0 nM (bendamustine alone), DOHH-2, 1000 cells/well, 120 hours
  IC50: 9870 nM
[3]; read-out: IC50 value of bendamustine in each concentration of compound A, compound A 39.1 nM, DOHH-2, 120 hours
  IC50: 5590 nM
[3]; read-out: IC50 value of bendamustine in each concentration of compound A, compound A 78.1 nM, DOHH-2, 120 hours
  IC50: 2960 nM
[3]; read-out: IC50 value of bendamustine in each concentration of compound A, compound A 156.3 nM, DOHH-2, 120 hours
  IC50: 1500 nM
[3]; read-out: IC50 value of bendamustine in each concentration of compound A, compound A 312.5 nM, DOHH-2, 120 hours
  IC50: 40.5 nM
[3]; bendamustine fixed at 0 nM, compound A at its IC50
  FIC (fractional inhibitory concentration): 0
[3]; bendamustine fixed at 1250 nM, compound A at its IC50
  FIC (fractional inhibitory concentration): 0.127
[3]; bendamustine fixed at 2500 nM, compound A at its IC50
  FIC (fractional inhibitory concentration): 0.253
[3]; bendamustine fixed at 5000 nM, compound A at its IC50
  FIC (fractional inhibitory concentration): 0.506
[3]; compound A fixed at 0 nM, bendamustine at its IC50
  FIC (fractional inhibitory concentration): 1
[3]; compound A fixed at 39.1 nM, bendamustine at its IC50
  FIC (fractional inhibitory concentration): 0.566
[3]; compound A fixed at 78.1 nM, bendamustine at its IC50
  FIC (fractional inhibitory concentration): 0.300
[3]; compound A fixed at 156.3 nM, bendamustine at its IC50
  FIC (fractional inhibitory concentration): 0.152
[3]; compound A fixed at 312.5 nM, bendamustine at its IC50
  FIC (fractional inhibitory concentration): 0.004

## O=P1(N(CCCl)CCCl)NCCCO1 (centres unmarked) [Cyclophosphamide, reference compound]
[4]; 30 or 100 mg/kg of compound A, 50 mg/kg of cyclophosphamide
  effectiveness of monotherapy (tumor growth delay): effective
[4]; cyclophosphamide 50 mg/kg intraperitoneally on Days 2, 5, 9, 12
  Median Time (time for relative tumor volume to reach 1600%): 23.4 days
[4]; [10]
  Tumor growth delay: 10.7 days
  Tumor growth delay rate: 83.9%

## Nc1ccn([C@@H]2O[C@H](CO)[C@@H](O)[C@@H]2O)c(=O)n1 [Cytarabine, reference compound]
[5]; compound A 30 mg/kg, cytarabine 50 mg/kg
  antitumor effect on KG-1 tumor (monotherapy): antitumor effect
[5]; cytarabine monotherapy 50 mg/kg intraperitoneally, 5-day administration and 2-day cessation, Day 16
  T/C (ratio of relative tumor volume of treated group to control group): 62.3%

## Nc1ncn([C@H]2C[C@H](O)[C@@H](CO)O2)c(=O)n1 [Decitabine, 5-aza-2′-deoxycytidine, reference compound]
[6]; compound A 30 mg/kg, decitabine 1 mg/kg
  antitumor effect on KG-1 tumor (monotherapy): antitumor effect
[6]; decitabine monotherapy 1 mg/kg intraperitoneally, twice a week, Day 23
  T/C (ratio of relative tumor volume of treated group to control group): 27.7%

## CS(=O)(=O)CCNCc1ccc(-c2ccc3ncnc(Nc4ccc(OCc5cccc(F)c5)c(Cl)c4)c3c2)o1 [Lapatinib, reference compound]
[7]; 30 or 100 mg/kg of compound A, 100 mg/kg of lapatinib
  effectiveness of monotherapy (tumor growth delay): effective
[7]; lapatinib 100 mg/kg orally once a day for 28 days
  Median Time (time for relative tumor volume to reach 200%): 34.2 days
[7]; [11]
  Tumor growth delay: 11.4 days
  Tumor growth delay rate: 50.0%

## Rituximab: anti-CD20 antibody; Rituxan (trademark) 100 mg/10 mL, purchased from Genentech [reference compound]
[8]; 30 mg/kg of compound A, 10 mg/kg of rituximab
  effectiveness of monotherapy (tumor growth delay): effective
[8]; rituximab 10 mg/kg intraperitoneally on Days 2, 9, 16
  Median Time (time for relative tumor volume to reach 600%): 28.4 days
[8]; [12]
  Tumor growth delay: 12.1 days
  Tumor growth delay rate: 74.2%
